Experimental findings from patent US20070270429A1, “Function Inhibitor of Effector Cell” (priority 2003, published 2007) are described below.

The subject of this assay is human CD4-positive Th1 differentiation cell. The experiment in a line: Cell growth inhibition test of human CD4-positive Th1 differentiation cell (anti-CD3 antibody stimulation, BrdU uptake). The class given is cell-based. The method, then: After treating the cells with BrdU for a predetermined period of time, the plate was centrifuged (300×g, 10 minutes), and then turned upside down and lightly shaken to remove the labeled medium. The plate was dried (for about 15 minutes) using a hair dryer. A cell fixing and DNA denaturing solution (200 μl, attached to the kit) was added to each well and left alone for 30 minutes. After removing the cell fixing and DNA denaturing solution and further removing water, a peroxidase-labeled anti-BrdU antibody (anti-BrdU-POD reaction solution) (100 μl) (attached to the kit) was added thereto and left alone at room temperature for 90 minutes. The antibody solution was discarded, each well was washed three times with PBS (200 μl), water was discarded, and then the substrate solution (100 μl) (attached to the kit) was added thereto. After carrying out the enzyme reaction for a period of 5 to 30 minutes, 1 N sulfuric acid solution (25 μl) was added thereto and stirred on a shaker. The absorbance of samples was measured by a microplate reader (SPECTRAMAX-PRO) at 450 nm (control wavelength: 690 nm).
The cells fractionated by the method described in the above-described (2-1) were inoculated into a 96 well plate coated with the anti-human CD3 antibody, at a cell density of 2×10^5 cells/100 μl/well, a medium (100 μl) containing 2 times concentration solution of each drug to be tested (contains 0.2% DMSO) was added thereto, and the cells were cultured for 48 hours in a CO2 incubator (5% CO2, humidity 95%) kept at 37° C. The BrdU uptake activity was measured by the method described in the above-described (2-4).
The cell growth inhibition activity of human CD8-positive memory T cell by the compounds of the […] was calculated as the inhibition ratio (%) in accordance with the following formula, in which the value of well to which the medium containing DMSO but not containing the drug to be tested was added was used as the control value (A), and the value of well to which the DMSO-containing medium containing the drug to be tested was added as the value (B). Inhibition ratio (%)=[(A−B)/A]×100 Results:
A heparinized blood sample was collected from a human, healthy volunteer, and peripheral blood mononuclear cell (PBMC) was isolated by the density gradient centrifugation described in the above-described (2-1). CD4-positive T cell was isolated from PBMC by a negative selection method using Human T Cell CD4 Subset Column Kit (R & D Systems, Inc). Specifically, the cells to be removed such as B cell, CD8-positive T cell, monocyte and the like were labeled with antibodies by adding an antibody cocktail (1 ml) (attached to the kit) to PBMC (up to 2×10^8 cells) and incubating at room temperature for 15 minutes. […]

As for `CCCCN1C(=O)[C@@H]([C@H](O)C2CCCCC2)NC(=O)C12CCN(Cc1ccc(Cc3ccc(C(=O)O)cc3OC)cc1)CC2` [Compound (b), 4-[4-({(3R)-1-butyl-3-[(R)-cyclohexyl(hydroxy)methyl]-2,5-dioxo-1,4,9-triazaspiro[5.5]undec-9-yl}methyl)benzyl]-3-methoxybenzoic acid], the “inhibition ratio of cell growth” value is listed as −2.3% (0.1 μM) and 21.8% (10 μM).
`CCCCN1C(=O)[C@@H]([C@H](O)C2CCCCC2)NC(=O)C12CCN(Cc1ccc(Oc3ccc(C(=O)O)cc3OCC)cc1)CC2.Cl` [Compound (c), 4-[4-({(3R)-1-butyl-3-[(R)-cyclohexyl(hydroxy)methyl]-2,5-dioxo-1,4,9-triazaspiro[5.5]undec-9-yl}methyl)phenoxy]-3-ethoxybenzoic acid hydrochloride]: the “inhibition ratio of cell growth” value reads like this: (0.1 μM) 48.3%; (10 μM) 47.7%.
